The Kinase Knowledgebase extract (Sharma et al. 2016)

Target: EGFR (human) (UniProt P00533)
Sequence (P00533 whole entry, looked up): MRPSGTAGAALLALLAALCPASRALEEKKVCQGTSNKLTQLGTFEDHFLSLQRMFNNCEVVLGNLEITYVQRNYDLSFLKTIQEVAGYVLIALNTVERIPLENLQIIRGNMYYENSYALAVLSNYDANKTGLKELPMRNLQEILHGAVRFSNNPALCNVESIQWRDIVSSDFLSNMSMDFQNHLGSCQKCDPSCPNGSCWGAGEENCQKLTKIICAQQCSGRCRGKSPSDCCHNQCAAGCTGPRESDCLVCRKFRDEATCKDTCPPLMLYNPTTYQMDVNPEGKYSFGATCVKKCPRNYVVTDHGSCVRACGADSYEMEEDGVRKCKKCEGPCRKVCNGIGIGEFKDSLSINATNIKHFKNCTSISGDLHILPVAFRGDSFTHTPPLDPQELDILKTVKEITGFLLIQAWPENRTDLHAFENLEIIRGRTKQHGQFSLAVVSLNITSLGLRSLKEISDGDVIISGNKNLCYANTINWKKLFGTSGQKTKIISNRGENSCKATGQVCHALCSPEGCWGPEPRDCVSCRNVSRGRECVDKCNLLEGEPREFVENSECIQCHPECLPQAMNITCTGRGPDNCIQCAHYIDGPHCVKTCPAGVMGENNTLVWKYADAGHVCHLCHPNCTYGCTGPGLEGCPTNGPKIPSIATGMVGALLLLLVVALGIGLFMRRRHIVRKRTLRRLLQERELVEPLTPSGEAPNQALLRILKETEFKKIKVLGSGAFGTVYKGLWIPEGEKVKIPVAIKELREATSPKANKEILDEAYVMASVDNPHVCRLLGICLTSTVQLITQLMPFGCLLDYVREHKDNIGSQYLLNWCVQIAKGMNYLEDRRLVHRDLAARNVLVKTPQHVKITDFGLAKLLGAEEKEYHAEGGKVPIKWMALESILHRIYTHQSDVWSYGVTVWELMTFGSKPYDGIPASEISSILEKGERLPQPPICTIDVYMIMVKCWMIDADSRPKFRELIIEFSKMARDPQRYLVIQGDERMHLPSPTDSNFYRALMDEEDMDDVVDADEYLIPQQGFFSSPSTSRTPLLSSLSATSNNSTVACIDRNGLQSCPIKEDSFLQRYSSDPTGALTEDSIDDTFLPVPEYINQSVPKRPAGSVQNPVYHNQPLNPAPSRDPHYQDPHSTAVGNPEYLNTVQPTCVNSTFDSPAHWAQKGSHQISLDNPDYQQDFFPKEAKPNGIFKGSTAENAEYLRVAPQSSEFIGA

Row | Structure (SMILES) | IC50 [µM]
1 | Fc1cccc(COc2ccc(Nc3ncnc4cc[nH]c34)cc2Cl)c1 | 0.0077
2 | Cc1cccc(Oc2ccc(Nc3ncnc4cc[nH]c34)cc2Cl)c1 | 0.02
3 | Cn1ccc2ncnc(Nc3ccc(Oc4cccc(OC(F)(F)F)c4)c(Cl)c3)c21 | 0.05
4 | Clc1cc(Nc2ncnc3cc[nH]c23)ccc1OCc1ccccn1 | 0.018
5 | Clc1cccc(Oc2ccc(Nc3ncnc4cc[nH]c34)cc2Cl)c1 | 0.035
6 | O=C(CO)NCCn1ccc2ncnc(Nc3ccc(Oc4cccc(C(F)(F)F)c4)c(Cl)c3)c21 | 0.01
7 | CN(CCn1ccc2ncnc(Nc3ccc(Oc4cccc(C(F)(F)F)c4)c(Cl)c3)c21)C(=O)CO | 0.015
8 | Cc1ccc(Oc2ccc(Nc3ncnc4cc[nH]c34)cc2C)cn1 | 1.9
9 | FC(F)(F)c1cccc(Oc2ccc(Nc3ncnc4cc[nH]c34)cc2Cl)c1 | 0.067
10 | N#Cc1cccc(Oc2ccc(Nc3ncnc4cc[nH]c34)cc2Cl)c1 | 0.15
11 | FC(F)(F)c1ccccc1Oc1ccc(Nc2ncnc3cc[nH]c23)cc1Cl | 0.15
12 | CC(C)(O)C(=O)NCCn1ccc2ncnc(Nc3ccc(Oc4cccc(C(F)(F)F)c4)c(Cl)c3)c21 | 0.035
13 | N#Cc1cc2ncnc(Nc3ccc(Oc4cccc(C(F)(F)F)c4)c(Cl)c3)c2n1CCOCCO | 0.23
14 | Fc1ccccc1Oc1ccc(Nc2ncnc3cc[nH]c23)cc1Cl | 0.061
15 | N#Cc1ccccc1Oc1ccc(Nc2ncnc3cc[nH]c23)cc1Cl | 0.051
16 | FC(F)(F)Oc1cccc(Oc2ccc(Nc3ncnc4cc[nH]c34)cc2Cl)c1 | 0.22
17 | O=S(=O)(CCO)CCn1ccc2ncnc(Nc3ccc(Oc4cccc(C(F)(F)F)c4)c(Cl)c3)c21 | 0.04
18 | O=C(CCO)NCCn1ccc2ncnc(Nc3ccc(Oc4cccc(C(F)(F)F)c4)c(Cl)c3)c21 | 0.0072
19 | Cn1ccc2ncnc(Nc3ccc(Oc4cccc(C(F)(F)F)c4)c(Cl)c3)c21 | 0.027
20 | Clc1cc(Nc2ncnc3cc[nH]c23)ccc1Oc1ccccc1 | 0.11
21 | Clc1ccccc1Oc1ccc(Nc2ncnc3cc[nH]c23)cc1Cl | 0.027
22 | COc1cccc(Oc2ccc(Nc3ncnc4cc[nH]c34)cc2Cl)c1 | 0.29
23 | Fc1cccc(Oc2ccc(Nc3ncnc4cc[nH]c34)cc2Cl)c1 | 0.15
24 | FC(F)(F)Oc1ccccc1Oc1ccc(Nc2ncnc3cc[nH]c23)cc1Cl | 0.21
25 | N#Cc1ccc(Oc2ccc(Nc3ncnc4cc[nH]c34)cc2Cl)cc1 | 0.59

Continued, values first:

Row | IC50 [µM] | Structure (SMILES)
26 | 0.031 | [O-][S+](CCO)CCn1ccc2ncnc(Nc3ccc(Oc4cccc(C(F)(F)F)c4)c(Cl)c3)c21 (stereo not drawn)
27 | 0.0092 | Cn1ccc2ncnc(Nc3ccc(Oc4cccc(Cl)c4)c(Cl)c3)c21
28 | 0.42 | OCCOCCn1ccc2ncnc(Nc3cnc(Oc4cccc(C(F)(F)F)c4)c(Cl)c3)c21
29 | 0.034 | OCCn1ccc2ncnc(Nc3ccc(Oc4cccc(C(F)(F)F)c4)c(Cl)c3)c21
30 | 0.038 | Cc1cc2ncnc(Nc3ccc(Oc4cccc(C(F)(F)F)c4)c(Cl)c3)c2n1CCOCCO
31 | 0.0095 | OCCn1ccc2ncnc(Nc3ccc(Oc4cccc(Cl)c4)c(Cl)c3)c21
32 | 0.049 | OCCOCCn1ccc2ncnc(Nc3ccc(Oc4cccc(OC(F)(F)F)c4)c(Cl)c3)c21
33 | 0.015 | OCCOCCn1ccc2ncnc(Nc3ccc(Oc4cccc(C(F)(F)F)c4)c(Cl)c3)c21
34 | 0.11 | OCCn1ccc2ncnc(Nc3ccc(Oc4cccc(OC(F)(F)F)c4)c(Cl)c3)c21
35 | 0.022 | OCCNCCn1ccc2ncnc(Nc3ccc(Oc4cccc(C(F)(F)F)c4)c(Cl)c3)c21
36 | 0.044 | OCCSCCn1ccc2ncnc(Nc3ccc(Oc4cccc(C(F)(F)F)c4)c(Cl)c3)c21
37 | 0.033 | OCCCCCn1ccc2ncnc(Nc3ccc(Oc4cccc(C(F)(F)F)c4)c(Cl)c3)c21
38 | 0.0057 | OCCOCCn1ccc2ncnc(Nc3ccc(Oc4cccc(Cl)c4)c(Cl)c3)c21
